Legend:
[1] = tested on: mice with ischemic AKI; experiment: renal ischemia-reperfusion injury model: renal function (serum creatinine, NGAL, KIM-1); format: in vivo; conditions: IRI-30 min, 3 doses of 5 mg/kg, 24 hours reperfusion
Protocol: (§1) Mice were anesthetized with isoflurane using a vaporizer and placed on a heating pad to maintain their body temperature at 37° C. Both renal arteries were identified through dorsal incisions and clamped for 20, 30, 35, or 37 minutes. Reperfusion was confirmed visually upon release of the clamps. Surgical wounds were closed, and mice were administered 1 mL of saline i.p. The mice were kept in a warm incubator until they regained consciousness and were allowed to recover with ad libitum access to food and water. […] Serum and kidney tissue were collected 24 hours after renal IRI.
Renal function was assessed by determining the serum levels of creatinine (KB02-H1; Arbor Assays), Lipocalin-2 (NGAL; MLCN20; R&D Systems), and kidney injury molecule-1 (KIM-1; MKM100; R&D Systems) after reperfusion for 24 h.

[2] = stability on incubation with human liver extracts; format: in vitro ADME
[3] = tested on: PGE2 production by cell lines; experiment: PGE2 production by cell lines; format: cell-based
[4] = target: T1, recombinant 15-PGDH (Homo sapiens, UniProt P15428); experiment: inhibition of recombinant 15-PGDH; format: biochemical
T1 sequence (P15428 1-266): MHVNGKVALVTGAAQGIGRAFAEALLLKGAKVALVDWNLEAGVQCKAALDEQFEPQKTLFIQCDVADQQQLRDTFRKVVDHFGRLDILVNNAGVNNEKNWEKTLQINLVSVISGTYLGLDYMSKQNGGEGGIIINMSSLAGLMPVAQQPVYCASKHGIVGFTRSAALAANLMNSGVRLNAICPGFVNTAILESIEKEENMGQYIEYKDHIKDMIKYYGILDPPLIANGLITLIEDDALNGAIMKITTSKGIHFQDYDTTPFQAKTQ

[5] = stability on incubation with rat liver extracts; format: in vitro ADME
[6] = tested on: mice; experiment: toxicity after IP injection into mice; conditions: IP into mice at 50 mg/kg body weight
[7] = stability on incubation with mouse liver extracts; format: in vitro ADME
[8] = chemical stability in aqueous solutions; format: physicochemical; conditions: over broad pH range
[9] = tested on: mice with ischemic AKI; experiment: survival and body weight over 7 days after renal IRI; format: in vivo; conditions: bilateral IRI 30 minutes, 5 mg/kg i.p. before and twice daily over 7 days, POD7
Protocol: (A) Experimental setup for toxicity. Ischemic AKI induced by bilaterally clamping the renal arteries for 30 minutes, followed by reperfusion. […] (n=10 per group). (B, C) Survival curves and body weight over 7 days. Kaplan-Meier analysis of survival stratified by AKI stage. Data are means±SEM. *P<0.05 vs. corresponding BI30_vehicle.

[10] = tested on: HMGB1 and proinflammatory cytokines; experiment: renal IRI model: HMGB1 and cytokine levels; format: in vivo; conditions: mice, 3 doses 5 mg/kg
Protocol: as §1
Inflammatory cytokine mRNA and protein levels were measured by real-time PCR and ELISA, respectively. Kidney tissue and serum were harvested after reperfusion for 24 h. Total RNA was extracted from frozen kidney tissue using TRIzol reagent (15596018; Invitrogen), according to the manufacturer's protocol. RNA was converted to cDNA using oligo-dT primers. IL-17, TNF-α, and […] levels were determined by real-time PCR with SYBR green PCR Master Mix and the primers listed in Table 1. For ELISA, frozen kidney tissues were homogenized in phosphate buffer. Serum IL-17 (M1700; R&D Systems), TNF-α (MTAOOB; R&D Systems), and IL-10β (MLBOOC; R&D Systems) were measured using commercial ELISA kits according to the manufacturer's instructions.

[11] = tested on: renal arterioles in the outer medulla; experiment: renal vasodilatation in the outer medulla (α-SMA-positive arteriole area); format: in vivo, mice; conditions: IRI mice; α-SMA staining
Protocol: as §1
To quantify vasodilation, the inner arteriole area of the outer medulla was determined using α-SMA-stained sections. After counterstaining with Mayer's hematoxylin, the inner area of α-SMA-positive vessels in the outer medulla (×25) was measured using ImageJ. The results are expressed as average areas of renal arteries outer medulla.

[12] = tested on: PGE2 receptors (EP1, EP2, EP3 and EP4) and adenosine receptor (A2A); experiment: renal IRI model: PGE2 receptors (EP1-EP4) and adenosine A2A receptor levels; format: in vivo, mice; conditions: kidney tissue, IRI mice
Protocol: as §1
PGE2 receptors (EP1, EP2, EP3 and EP4) and adenosine receptor (A2A) mRNA levels were determined by real-time PCR with SYBR green PCR Master Mix and the primers listed in Table 1. Their protein levels were determined by western blotting assay and immunofluorescence analysis.

[13] = tested on: mice with ischemic AKI; experiment: renal IRI model: necrotic and apoptotic cell death in the outer medulla; format: in vivo
Protocol: as §1
To evaluate necrosis, 5-μm-thick paraffin sections were stained with H&E. Tubular injury was scored semi quantitatively according to a scoring system by a pathologist who examined at least 20 separate fields (×400) in the outer medulla, which is the zone most sensitive to ischemic injury. The scoring system was as follows: 0, no damage; 1, patchy isolated unicellular necrosis; 2, tubular necrosis <25%; 3, tubular necrosis 25-50%; and 4, tubular necrosis >50%. At least 20 consecutive high-power fields (magnification, ×400) per section were scored by two operators blind to the details of the experiment. To analyze the frequency of apoptosis, 5-μm-thick paraffin sections were subjected to terminal deoxynucleotidyl transferase-mediated dUTP nick-end labeling (TUNEL) assay (APT110; Millipore) according to the manufacturer's protocol. TUNEL-positive cells were counted in at least five separate fields (×640 magnification) in the outer medulla, and the apoptosis index (%, number of apoptosis cells/total number of cells) was calculated using GENASIS software.

## CCCCC[C@H](O)/C=C/[C@H]1[C@H](O)CC(=O)[C@@H]1CCCCCCC(=O)O [PGE1, reference compound]
[1]
  renal protection from IRI (serum NGAL, creatinine, KIM-1): less effective for renal protection

## CCCCC[C@H](O)/C=C/[C@H]1[C@H](O)CC(=O)[C@@H]1C/C=C\CCCC(=O)O [PGE2, reference compound]
[1]
  renal protection from IRI (serum NGAL, creatinine, KIM-1): less effective for renal protection

## CCCC[S+]([O-])c1sc2nc(-c3nccs3)cc(-c3cnc(C)n3C)c2c1N (stereo not drawn) [formula (VII)]
[2]
  chemical stability when incubated with human liver extracts: chemically stable
[3]
  concentration at which PGE2 production by cell lines is increased: 20 nM
[4]
  concentration at which recombinant 15-PGDH is inhibited: 3 nM
[5]
  chemical stability when incubated with rat liver extracts: chemically stable
[6]
  immediate toxicity over 24 hours: no immediate toxicity
[7]
  chemical stability when incubated with mouse liver extracts: chemically stable
[8]
  chemical stability in aqueous solutions: chemically stable

## COc1ccc2c(c1)c(CC(=O)O)c(C)n2C(=O)c1ccc(Cl)cc1 [indomethacin, reference compound]
[9]
  reduced survival vs vehicle control: 25%
[10]
  induction of inflammatory cytokines: increased induction of inflammatory cytokines
[10]; kidney tissue, western blot
  increase of HMGB1 compared to the IRI-vehicle group: 50%
[11]
  renal arteriole area in the outer medulla: significantly decreased
[12]
  EP4 mRNA: reduced
  increase of levels of mRNA for EP1: 40%
[1]
  renal protection from IRI (serum NGAL, creatinine, KIM-1): significantly aggravated IRI
[13]; 3 doses 5 mg/kg i.p., POD1, vs IRI-vehicle
  tissue congestion in the outer medulla (gross pathology): worsened
[13]; 3 doses 5 mg/kg, POD1
  renal injury (histopathology, tubular injury): further exacerbated renal injury

— patent US20250325524A1, “COMPOSITIONS AND METHODS FOR TREATING RENAL INJURY” (CASE WESTERN RESERVE UNIVERSITY, priority 2018, published 2025)
